Target: T1, Endothelin converting enzyme (ECE) (Sus scrofa, UniProt A0A8W4FBH0)
T1 construct: partially purified from porcine primary aortic endothelial cells; endogenous in cells; host or cells: porcine primary aortic endothelial cells (partially purified by DE52 anion exchange)
T1 sequence (A0A8W4FBH0 1-751): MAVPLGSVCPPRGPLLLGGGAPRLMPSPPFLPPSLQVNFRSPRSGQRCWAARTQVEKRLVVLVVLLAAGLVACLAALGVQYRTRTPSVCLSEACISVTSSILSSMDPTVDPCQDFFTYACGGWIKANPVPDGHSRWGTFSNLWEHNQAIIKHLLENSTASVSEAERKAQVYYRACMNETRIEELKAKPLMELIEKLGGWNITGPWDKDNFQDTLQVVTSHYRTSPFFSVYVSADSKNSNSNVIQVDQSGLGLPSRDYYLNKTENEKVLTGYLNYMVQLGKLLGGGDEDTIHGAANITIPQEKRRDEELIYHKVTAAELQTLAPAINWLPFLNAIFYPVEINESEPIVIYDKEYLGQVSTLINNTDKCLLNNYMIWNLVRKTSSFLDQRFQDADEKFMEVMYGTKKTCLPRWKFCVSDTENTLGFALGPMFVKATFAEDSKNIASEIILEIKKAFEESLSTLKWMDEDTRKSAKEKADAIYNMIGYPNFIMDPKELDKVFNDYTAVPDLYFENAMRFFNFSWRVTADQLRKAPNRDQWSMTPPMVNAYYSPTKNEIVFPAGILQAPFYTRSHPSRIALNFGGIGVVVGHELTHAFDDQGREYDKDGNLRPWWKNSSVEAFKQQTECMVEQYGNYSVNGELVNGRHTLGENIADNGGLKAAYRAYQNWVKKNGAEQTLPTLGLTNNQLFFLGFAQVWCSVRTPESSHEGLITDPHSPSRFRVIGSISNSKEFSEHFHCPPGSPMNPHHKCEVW
Test: in vitro assay for endothelin converting enzyme inhibition (radioimmunoassay of ET-1 formed from big ET-1)
Format: biochemical, porcine
Text: The ECE inhibition can be determined as described in Biochem. Mol. Biol. Int. […] In vitro testing is most appropriate for the free phosphonic acids of the invention.

O=P(O)(O)C(CCc1cccc2ccccc12)N[C@@H](Cc1ccc(-c2ccccc2)cc1)c1nnn[nH]1 (single isomer, unassigned) [1 (a)]
IC50 (ECE partially purified from porcine primary aortic endothelial cells, pH 7.4 buffer): ~370 nM
relative activity as ECE inhibitor (diastereomer A versus diastereomer B) (comparison of the two diastereomers of Example 1): more active

Source: patent publication US5583123A, “Certain tetrazole derivatives” (priority 1994, dated 1996)
